# Laboratory results reported in patent publication US20210322545A1 (priority 2016, published 2021).
# Conditions: mouse, in vivo
smiles,measurement,value
CN[C@@H](C)C(=O)N[C@H](C(=O)N1CCC[C@H]1c1nc(C(=O)c2ccc(F)cc2)cs1)C1CCCCC1 [LCL161],body weight in combination treatment cohort,fully recovered following the last treatment
